{"source": "patent US20240269112A1", "about": "(priority 2020, published 2024)", "key": {"[1]": {"tested_on": "septic patients who have undergone abdominal surgery", "settings": "human, in vivo", "text": "The enzyme lactate dehydrogenase (or also called “lactic acid dehydrogenase” (LDH)), an enzyme which is found in almost all the tissues in the human body, has been determined to detect injuries in tissues such as the liver. It plays an important role in cellular respiration (the process in which glucose from foods is converted into energy which can be used by cells).\nAlthough LDH is abundant in tissue cells, the levels in blood are generally low. However, when tissues are damaged as a result of an injury or a disease, they release more LDH into the blood stream. This increase in the amount of LDH in the blood stream is often caused by the following conditions: liver diseases, heart attacks, anemia, muscle trauma, bone fracture, cancer, infections such as meningitis, encephalitis, or HIV."}, "[2]": {"tested_on": "Covid-19 patients admitted to the ICU", "test": "IV melatonin in Covid-19 ICU patients: systemic inflammatory response (ferritin, D-dimer, CRP, IL-6, lymphocytes)", "assay_type": "in vivo, human", "procedure": "(§1) To conduct this study, all patients received standard treatment according to institutional protocols. Furthermore, patients were assigned randomly in a 2:1 ratio to receive: • Experimental group (12 patients): 7 days of 5 mg/kg body weight/day of intravenous melatonin every 6 hours. Daily maximum dose of 500 mg a day. • Control group (6 patients): 7 days of 5 mg/kg body weight/day of placebo with identical appearance through the intravenous route every 6 hours.\n(§2) After 3 days of treatment, 3 intensive care physicians evaluated each participant and decided whether or not they wished to complete the treatment based on their clinical assessment: • If there were objective or subjective signs of improvement or non-worsening of general clinical condition or respiratory failure, with no observation of inflammatory condition or multiorgan failure, the participant continued treatment until completion. • If an adverse effect or clinical deterioration which can be objectively or subjectively attributed to the study drug was observed, treatment was discontinued.\n(§3) The injectable composition was prepared according to the criteria established in Example 1 by adjusting the amounts to 5 mg/kg body weight/day of intravenous melatonin every 6 hours.\n(§4) • To evaluate whether iv treatment with melatonin reduced the duration of ICU (intensive care unit) admission. • To evaluate whether iv treatment with melatonin reduced the duration of mechanical ventilation (MV). • To evaluate whether iv treatment with melatonin was associated with an increase in MV-free days. • To evaluate whether iv treatment with melatonin is associated with a reduction in systemic inflammatory response, defined by the levels of ferritin, D-dimer, C-reactive protein (CRP) or procalcitonin (PCT) and IL-6. 1. Evaluating Whether iv Treatment with Melatonin Reduced the Duration of ICU (Intensive Care Unit) Admission (See FIG. 7)"}, "[3]": {"tested_on": "septic patients who have undergone abdominal surgery", "test": "Clinical study with septic patients: blood parameters (leukocytes, red blood cells, hemoglobin, hematocrit, neutrophils, lymphocytes, platelets)", "settings": "regardless of time, p=0.007", "quoted_text": "The following blood parameters from these samples were analyzed for each of the participating patients: the number of leukocytes, the number of red blood cells, hemoglobin, hematocrit, percentage of neutrophils, percentage of lymphocytes, and the number of platelets."}, "[4]": {"tested_on": "Covid-19 patients admitted to the ICU", "test": "Efficacy and safety of IV melatonin in Covid-19 patients admitted to the ICU: hospital/ICU stay, mechanical ventilation, adverse reactions", "assay_type": "in vivo, human", "procedure": "as §1, §2, §3, §4"}, "[5]": {"tested_on": "septic patients who have undergone abdominal surgery", "settings": "human, in vivo", "text": "The following parameters related to kidney function have been determined: • Creatinine is a waste molecule generated from muscle metabolism. Creatinine originates from creatine, a very important molecule for energy production in the muscle. About 2% of creatine in the body is converted into creatinine every day. Creatinine is transported from muscles to the kidney by blood. The kidneys filter most of the creatinine and eliminate it in the urine. Determination of serum creatinine is a test which provides a fairly reliable indication of the state of kidney function. • Urea, the determination of which is the most widely used test to assess kidney function. Urea is the end product of protein and amino acid metabolism. In protein degradation, proteins are split into amino acids and deaminated. Urea is synthesized in the liver with the ammonia that is formed. This is the most important pathway for degrading excess nitrogen in the human body.", "remark": "listed apart in the source"}, "[6]": {"tested_on": "septic patients who have undergone abdominal surgery", "settings": "human, in vivo", "remark": "listed apart in the source"}, "[7]": {"settings": "5 mg/kg/day iv every 6 hours, 7 days"}}}
{"compound": "COc1ccc2[nH]cc(CCNC(C)=O)c2c1", "note": "[melatonin, N-acetyl-5-methoxytryptamine]", "values": [{"measurement": "Levels of LDH compared between the two groups in each time point", "setting": "[1]", "value": "higher in group A (melatonin)"}, {"measurement": "Inflammatory response", "setting": "[2]; 5 mg/kg/day for 7 days", "value": "improvement in the inflammatory response"}, {"measurement": "Levels of dimer-D (D-dimer)", "setting": "[2]; during the days of treatment, FIG. 2", "value": "reduction"}, {"measurement": "Levels of ferritin", "setting": "[2]; during the days of treatment, FIG. 3", "value": "reduction"}, {"measurement": "Levels of CRP", "setting": "[2]; during the days of treatment, FIG. 4", "value": "reduction"}, {"measurement": "IL6", "setting": "[2]; during the days of treatment, FIG. 5", "value": "reduction"}, {"measurement": "Bilirubin", "setting": "[2]; during treatment", "value": "has to drop"}, {"measurement": "Neutrophils", "setting": "[2]; during treatment", "value": "tendency of neutrophils decreasing"}, {"measurement": "Lymphocytes with respect to placebo", "setting": "[2]; during treatment, FIG. 6", "value": "increase"}, {"measurement": "Neutrophil average, group A compared with group B (placebo)", "setting": "[3]", "value": "higher in group B (placebo) than in group A (melatonin)"}, {"measurement": "Adverse reactions", "setting": "[4]; 5 mg/kg/day for 7 days", "value": "did not cause any adverse reactions"}, {"measurement": "Increase in the number of days without mechanical ventilation compared to placebo", "setting": "[4]; 5 mg/kg/day for 7 days", "value": 16, "unit": "days"}, {"measurement": "Reduction in invasive mechanical ventilation compared to placebo", "setting": "[4]; 5 mg/kg/day for 7 days", "value": 9, "unit": "days"}, {"measurement": "Days without mechanical ventilation during hospitalization (MV-free days)", "setting": "[4]; [7]", "value": 40, "unit": "days"}, {"measurement": "Duration of ICU admission compared to placebo", "setting": "[4]; [7]", "value": "no significant difference"}, {"measurement": "Duration of invasive mechanical ventilation", "setting": "[4]; [7]", "value": 21, "unit": "days"}, {"measurement": "Duration of non-invasive mechanical ventilation", "setting": "[4]; [7]", "value": 16.5, "unit": "days"}, {"measurement": "Reduction in hospital stay compared to placebo", "setting": "[4]; [7]", "value": 15, "unit": "days"}, {"measurement": "Levels of creatinine compared between groups A and B in each time point", "setting": "[5]", "value": "no statistically significant differences"}, {"measurement": "Levels of urea compared between the two groups in each time point", "setting": "[5]", "value": "higher in group B (placebo)"}, {"measurement": "ALP (alkaline phosphatase): average values between groups", "setting": "[6]", "value": "not statistically significant"}, {"measurement": "GGT: average values between groups", "setting": "[6]", "value": "not statistically significant"}, {"measurement": "GOT: differences in average values between groups", "setting": "[6]", "value": "not statistically significant"}, {"measurement": "GPT: average values between groups", "setting": "[6]", "value": "not statistically significant"}]}
